Several values for one entry are separate records, joined by “and”; a condition that tells them apart may be missing. Equal entries are not always repeated. Entries after “also recorded” stand apart in the source; their conditions may differ. Where two headings read alike, the source gives them in different places. Marks after values point to notes of the source that are not given here.
Experiments:
[1] = system: Plasmodium falciparum; parameters: method as in PMID 17568942; conditions: cited from earlier work
[2] = system: Mouse embryonic fibroblast cells (3T3L1 line); experiment: Cell viability assay (alamar blue); assay type: cell-based; conditions: ‡ >50 µg/mL, read-out: Toxicity Mouse embryonic fibroblast cells (3T3L1 line) (IC50)
Protocol: The cytotoxicity of 4-NC and derivatives of 4-NC 1–8 to mouse embryonic fibroblast line 3T3L1 was evaluated using alamar blue to measure cell survival/proliferation. The substances at different concentrations (12.5, 25 and 50 µM) were separately incubated with cells and the number of viable cells was counted after 24, 48 and 72 h. […] O,O-Dibenzyl 4-NC (1) was not active (i.e. not toxic to A. franciscana) in the brine shrimp assay (Table 1).
3T3-L1 cells (mouse embryonic fibroblasts) were obtained from the Cell Bank of Rio de Janeiro, Brazil and were maintained in Dulbecco’s Modified Eagle Medium (DMEM) which was supplemented with 10% fetal bovine serum (FBS), penicillin (100 U/mL) and streptomycin (100 U/mL). The cells were incubated at 37 °C in a humidified atmosphere containing 5% of CO2.
The cytotoxicity of 4-NC and its semi-synthetic derivatives 1–8 to the 3T3L1 mouse embryonic fibroblast cell line fibroblasts was determined by the alamar blue method as described by Nakayama and co-workers. The alamar blue assay is a colorimetric assay involving the cellular reduction of resazurin to resorufin. Briefly, adherent cells (5 × 10^3 cells/well) were grown in 96-well tissue culture plates and exposed to substances (50, 25 and 12.5 μM) for 24, 48 and 72 h. After incubation, the alamar blue solution (10 µL of 0.4% alamar blue (resazurin) in PBS) was added and the cells were incubated for 2 h at 37 °C. Fluorescence was measured (excitation at 545 nm and emission at 595 nm) and expressed as a percentage of the cells in the control after background fluorescence was subtracted. The assays were performed in triplicate.

[3] = system: rat brain homogenates; parameters: method as in ref 8 = [8]; 8. De Freitas P.C.D. Atividade Antioxidante de Espécies Medicinais da Família Piperaceae: Pothomorphe umbellata (L.) Miq. e Piper regnelli (Miq.) C. DC Ph.D. Thesis University of São Paulo (USP) São P; conditions: inhibition of spontaneous lipoperoxidation; cited from earlier work
[4] = system: KB tumor cells; parameters: method as in PMID 10364848; conditions: cited from earlier work
[5] = system: tumor cell lines; conditions: cited from earlier work
[6] = ABTS radical-scavenging activity; assay type: biochemical; conditions: compounds tested at 250 µM, mean ± standard deviation, n = 3
Protocol: The ABTS assay used herein was based on the method of Re et al. with slight modifications. Substances at concentrations of 250 µM, BHT or BHA were added to dilute ABTS solution and the absorbance at […] was measured. The antioxidant activity was calculated using the equation: % inhibition = 100 × (1 − sample abs/control abs).

[7] = DPPH radical-scavenging activity; assay type: biochemical; conditions: compounds tested at 250 µM, mean ± standard deviation, n = 3
Protocol: The measurement of the scavenger activity of DPPH• was carried out according to the method of Molineux with modifications. Substances at 250 µM were added, at an equal volume, to the methanol solution of DPPH• ([…]). After 15 min at room temperature, the absorbance was recorded at 517 nm (sample abs). The experiment was repeated three times. BHT, BHA were used as controls. Values denote percentage of DPPH free radical inhibition. The antioxidant activity was calculated using the equation: % inhibition = 100 × (1 − sample abs/control abs).

[8] = system: 3T3L1 mouse embryonic fibroblast cell line; experiment: Cellular antioxidant activity (oxidation of DCFH-DA); assay type: cell-based; parameters: inhibition of the oxidation of DCFH-DA in 3T3L1 cells: concentration or dose not given beside the values; conditions: for loss of antioxidant activity after storage: DMSO solution stored at −20 °C for 30 days; for inhibition of the oxidation of DCFH-DA in 3T3L1 cells: over the observation period of 60 min
Protocol: These tests evaluate the reducing effect of a given substance on the radical species formed in situ during these assays leading to a decrease in color versus controls that is measured spectrophotometrically. […] Thus, at a concentration of 250 µM, 4-NC inhibited DPPH• and ABTS+• by 97% and 95%, respectively. Mono-O-substituted 4-NC derivatives 2–5 inhibited ABTS+• by 89–93%. […] The antioxidant activity was also evaluated in mouse embryonic 3T3L1 fibroblasts. In this assay DCFH-DA (2',7'-dichlorofluorescein diacetate) is hydrolyzed by intracellular esterases and then oxidized by reactive oxygen species (ROS) to the fluorescent compound 2'-7'-DCF. An active antioxidant substance can inhibit the transformation of fatty acids to fatty acid hydroperoxides in the cell membranes and thereby inhibit the oxidation of DCFH-DA.
The antioxidant activity of 4-NC and semi-synthetic derivatives of 4-NC was evaluated on the 1st and 30th days after dissolving the substances in DMSO at a concentration of 10 mM and storage in a freezer at −20 °C. This experiment permitted the evaluation of the relative stability of the antioxidant activity of 4-NC, derivatives of 4-NC, BHT and BHA. Thus, cellular antioxidants were evaluated using the mouse embryonic fibroblast 3T3L1 cell line. […] The presence of mono-O or di-O,O substituent groups in the 4-NC derivatives can confer stability relative to 4-NC. Such chemical stability is highly desirable when contemplating the use of such substances in cosmetic and pharmaceutical formulations and foods. Here, 4-NC dissolved in DMSO lost more than 80% of its antioxidant activity after 30 days in the freezer.
Intracellular ROS production was detected using the non-fluorescent cell permeating compound, 2'7'-dichlorofluorescein diacetate (DCF-DA), as described by Wolfe and Liu. DCF-DA is hydrolyzed by intracellular esterases and then oxidized by hydroperoxides into the fluorescent compound, 2'-7'-DCF. 3T3-L1 cells were seeded at a density of 6 × 10^4 cells/well in a 96-well microplate in 100 μL of growth medium. 24 h after seeding, the growth medium was removed and the wells were washed with PBS. Then, a 10 μM solution of DCFH-DA dissolved in Hank’s buffer (100 μL) was added to wells and incubated for 30 min at 37 °C and 5% CO2. The cells were washed first with PBS (100 μL) then EEP (100 µL) and samples having different concentrations were added. The fluorescence was immediately measured at an excitation wavelength of 485 nm and emission wavelength of 520 nm over 60 min at 5 min intervals. Controls with/without DCFH-DA were prepared and subjected to analogous procedures. Quercetin, BHA and BHT were used as positive controls of antioxidant activity.

[9] = system: normal fibroblast cells; parameters: method as in PMID 19059332; conditions: cited from earlier work
[10] = system: melanoma cell lines (SK-Mel-28, 103 and 147); parameters: method as in PMID 19059332; conditions: read-out: IC50 in vitro growth of melanoma cell lines; cited from earlier work
[11] = system: human topoisomerase I; parameters: method as in PMID 10364848; conditions: cited from earlier work
[12] = system: Plasmodium berghei; conditions: cited from earlier work
[13] = Brine shrimp assay; parameters: species or system Artemia franciscana; conditions: Artemia franciscana (brine shrimp), in vivo, read-out: Toxicity Brine shrimp (Artemia franciscana) (LC50)
[14] = system: Artemia franciscana; experiment: Brine shrimp assay; conditions: in vivo
[15] = system: leukemia cells (HL-60 strain); parameters: method as in PMID 19084293; conditions: read-out: IC50 growth of leukemia cells; cited from earlier work
[16] = system: colon tumor cells (HCT-8 strain), central nervous system tumor cells (SF295 strain) and leukemia cells (HL-60 strain); parameters: method as in PMID 19084293; conditions: HCT-8, SF295 and HL-60; read-out: cytotoxicity IC50; cited from earlier work
[17] = Mus musculus, 3T3-L1, alamar blue
[18] = † >500 µg/mL, 4 and 5 tested separately

Compound	ABTS (%) percentage of inhibition [6]	IC50 [2, 17] [µM]	DPPH• (%) percentage of inhibition [7]	LC50 [13, 18] [µM]	cytotoxic activity against Artemia franciscana in the brine shrimp assay [14]	further results
4-nerolidylcatechol [Compound 4-NC]						in vitro activity against Plasmodium falciparum [1]: high in vitro activity; IC50 ([2]; alamar blue): 31.4 µM and 31.5 µM; in vitro antioxidant activity relative to α-tocopherol (vitamin E) [3]: approximately 20 times; toxicity in vitro to KB tumor cells [4]: toxic; IC50 [5]: 19.7 to 38.8 µM; ABTS (%) percentage of inhibition ([6]; 250 µM): 95% and 94.82 ± 0.22 ^a %; DPPH• (%) percentage of inhibition ([7]; 250 µM): 97% and 96.53 ± 0.50 ^a %; loss of antioxidant activity after storage ([8]; 3T3L1 cells): more than 80%; inhibition of the oxidation of DCFH-DA in 3T3L1 cells [8]: ≥ 20%; IC50 [9]: 50 µM; IC50 [10]: 20 to 40 µM; inhibition of human topoisomerase I [11]: inhibits; in vivo activity in Plasmodium berghei-infected mice [12]: low in vivo activity; also recorded: little activity
COc1ccc(O)c(C(C)(C)C)c1 [BHA, butylated hydroxyanisole, reference compound]	94.71 ± 0.47 ^a %					DPPH• (%) percentage of inhibition ([7]; 250 µM): 98% and 97.97 ± 0.10 ^a %; loss of antioxidant activity after storage ([8]; 3T3L1 cells): ≥ 70%
Cc1cc(C(C)(C)C)c(O)c(C(C)(C)C)c1 [BHT, butylated hydroxytoluene, reference compound]	93.13 ± 0.18 ^a %					DPPH• (%) percentage of inhibition ([7]; 250 µM): 17% and 16.84 ± 0.81 ^c %; increase of antioxidant activity after storage ([8]; DMSO solution, 30 days of storage in the freezer, 3T3L1 cells): approximately 100%
C=CC(C)(CC/C=C(\C)CCC=C(C)C)c1ccc(OCc2ccccc2)c(OCc2ccccc2)c1 (centres unmarked) [Compound 1, O,O-Dibenzyl 4-NC]	7.97 ± 2.72 ^b %	> 101	4.35 ± 0.71 ^c %	> 1000	not active	activity against tumor cells [5]: inactive
C=CC(C)(CC/C=C(\C)CCC=C(C)C)c1ccc(OCc2ccccc2)c(O)c1 (centres unmarked) [Compound 2, 1-O-benzyl 4-NC]	91.12 ± 0.68 ^a %		44.20 ± 0.01 ^b %	1000	weak cytotoxic activity	activity against tumor cells [5]: inactive
C=CC(C)(CC/C=C(\C)CCC=C(C)C)c1ccc(O)c(OCc2ccccc2)c1 (centres unmarked) [Compound 3, 2O-monobenzyl derivative of 4-NC]	93.31 ± 0.30 ^a %	> 124	48.09 ± 1.33 ^b %	> 1200	weak cytotoxic activity	IC50 ([5]; read-out: cytotoxicity IC50 against four tumor cell lines, four tumor cell lines): 25.1 to 41.7 µM
C=CC(C)(CC/C=C(\C)CCC=C(C)C)c1ccc(OC)c(O)c1 (centres unmarked) [Compound 4, 1O-monomethyl derivative of 4-NC]				600	weak cytotoxic activity	IC50 [15]: 57.4 µM
C=CC(C)(CC/C=C(\C)CCC=C(C)C)c1ccc(O)c(OC)c1 (centres unmarked) [Compound 5, 2O-monomethyl 4-NC derivative]				1200	weak cytotoxic activity	IC50 [16]: 43.9 to 63.1 µM
C=CC(C)(CC/C=C(\C)CCC=C(C)C)c1ccc(OC(=O)c2ccccc2)c(OC(=O)c2ccccc2)c1 (centres unmarked) [Compound 6, O,O-dibenzoyl 4-NC]	8.83 ± 0.23 ^b %	> 95.8	3.46 ± 0.63 ^c %		moderately toxic	activity against tumor cells [5]: inactive; inhibition of the oxidation of DCFH-DA in 3T3L1 cells [8]: ≥ 20%; LC50 [13]: 69 µM
C=CC(C)(CCC1OC1(C)CCC1OC1(C)C)c1ccc(OC(C)=O)c(OC(C)=O)c1 (centres unmarked) [Compound 8]	0.31 ± 0.01 ^c %	> 116	7.39 ± 3.66 ^c %			inhibition of the oxidation of DCFH-DA in 3T3L1 cells [8]: ≥ 20%
O=c1c(O)c(-c2ccc(O)c(O)c2)oc2cc(O)cc(O)c12 [Quercetin, quercetin, reference compound]	99.7 ± 0.02 ^a %		91.4 ± 0.12 ^a %			loss of antioxidant activity after storage ([8]; 3T3L1 cells): ≥ 70%

— article PMC6269653, “Stability and Antioxidant Activity of Semi-synthetic Derivatives of 4-Nerolidylcatechol” (Molecules, 2012)
